Measurements from patent publication US4562191A (priority 1983, dated 1985).
Values joined by “and” are separate entries in the source; they are usually repeats but may differ in a detail not shown here. Equal entries are not always repeated.

Tested on: Male CD-1 albino mice
Parameters: species or system mouse (CD-1 albino)
Conditions: mouse, in vivo

For `CC(=O)Oc1ccccc1C(=O)O` [Acetyl-salicylic acid, acetylsalicylic acid], the “Mean number of contortions ± S.D.” value was 13.5 ± 11.1 and the “No. of animals exhibiting contortions out of total” value was 4/6.

With `CCC(=O)O[C@](Cc1ccccc1)(c1ccccc1)[C@H](C)CN(C)C` [D-propoxyphene] the “Mean number of contortions ± S.D.” value was 2.5 ± 2.1 and the “No. of animals exhibiting contortions out of total” value was 2/6.

In the case of `CCCCC1C(=O)N(c2ccccc2)N(c2ccccc2)C1=O` [Phenylbutazone], the “No. of animals exhibiting contortions out of total” value is reported as 3/6 and 5/6.
